Test results: patent US20020055528A1, “Artemisinin analogs having antimalarial, antiproliferative, and antitumor activities and chemoselective methods of making the same” (priority 1999, published 2002)

Legend:
Assay type in all cases: cell-based
[1] = test system: DU-145; assay: NCI 60 cell line screen (SRB), Prostate Cancer; settings: for Log10TGI: PG=0
[2] = test system: NCI-H522; assay: NCI 60 cell line screen (SRB), Non-Small Cell Lung Cancer; settings: for Log10TGI: PG=0
[3] = test system: OVCAR-4; assay: NCI 60 cell line screen (SRB), Ovarian Cancer
[4] = test system: SNB-19; assay: NCI 60 cell line screen (SRB), CNS Cancer; settings: for Log10TGI: PG=0
[5] = test system: OVCAR-5; assay: NCI 60 cell line screen (SRB), Ovarian Cancer; settings: for Log10TGI: PG=0
[6] = test system: BT-549; assay: NCI 60 cell line screen (SRB), Breast Cancer
[7] = test system: UACC-62; assay: NCI 60 cell line screen (SRB), Melanoma; settings: for Log10TGI: PG=0
[8] = test system: NCI-H322M; assay: NCI 60 cell line screen (SRB), Non-Small Cell Lung Cancer; settings: for Log10GI50: PG=+50
[9] = test system: RPMI-8226; assay: NCI 60 cell line screen (SRB), Leukemia; settings: for Log10TGI: PG=0
[10] = test system: PC-3; assay: NCI 60 cell line screen (SRB), Prostate Cancer; settings: for Log10TGI: PG=0
[11] = test system: MDA-MB231/ATCC; assay: NCI 60 cell line screen (SRB), Breast Cancer; settings: MDA- (first line of MDA-MB231/ATCC); for Log10TGI: PG=0
[12] = test system: NCI-H460; assay: NCI 60 cell line screen (SRB), Non-Small Cell Lung Cancer; settings: for Log10TGI: PG=0
[13] = test system: COLO 205; assay: NCI 60 cell line screen (SRB), Colon Cancer
[14] = test system: SR; assay: NCI 60 cell line screen (SRB), Leukemia
[15] = test system: K-562; assay: NCI 60 cell line screen (SRB), Leukemia; settings: for Log10TGI: PG=0
[16] = test system: LOX IMVI; assay: NCI 60 cell line screen (SRB), Melanoma; settings: for Log10TGI: PG=0
[17] = test system: UACC-257; assay: NCI 60 cell line screen (SRB), Melanoma; settings: for Log10TGI: PG=0
[18] = test system: MDA-MB-435; assay: NCI 60 cell line screen (SRB), Breast Cancer
[19] = test system: HL-60(TB); assay: NCI 60 cell line screen (SRB), Leukemia; settings: for Log10TGI: PG=0
[20] = test system: SF-295; assay: NCI 60 cell line screen (SRB), CNS Cancer
[21] = test system: MB231/ATCC (second line of the wrapped label, with values of its own); assay: NCI 60 cell line screen (SRB), Breast Cancer
[22] = test system: NCI-H23; assay: NCI 60 cell line screen (SRB), Non-Small Cell Lung Cancer
[23] = test system: murine keratinocyte cell line PE; assay: Growth inhibition of PE cells, MTT assay; settings: 100 nanomolar; compared with calcitriol; FIG. 5
Experimental: To determine the inhibitory effect of the compositions of the present invention on cell proliferation, screening assays were performed on a murine keratinocyte cell line PE. Cell line PE was chosen for its particular sensitivity to the induction of omithine decarboxylase (ODC) activity by the extensively characterized tumor promoter TPA. Cell line PE was derived from a papilloma-induced in female SENCAR mice by a standard skin initiation/promotion protocol, see Yuspa, S. H., et al., Carcinogenesis, 7:949-958 (1986). PE cell culture medium consisted of Eagle's minimal essential medium without calcium chloride (Whittaker Bioproducts, Walkersville, Mass.) supplemented with 8% chelexed fetal calf serum and 1% antibiotic-antimycotic (Gibco BRL) and the addition of CaCI2 to 0.05 mM Ca^++
MTT [3-(4,5-dimethylthiazol-2-yl)-2,5-diphenyltetraxolium bromide] was purchased from Sigma Chemical Co. (St. Louis, Mo.), and TPA was supplied by L.C. Services (Woburn, Mass.). L-[^14C]omithine ([…]) was from Amersham/Searle Corp. (Arlington Heights, Ill.). Chemical solvents used in all assays of biological activity were of the highest grade commercially available.
Growth curves, shown in FIG. 5, for PE cells treated with calcitriol and the C-10 carbon-substituted dimers VII-f, VII-g and VII-h generated by assay for the reduction of the tetrazolium-based compound MTT, see Charmichael, et al., Cancer Res., 47:936-942 (1987). A mitochondrial dehydrogenase reduces MTT to a blue formazan product with an absorbance maximum of 505 nm in DMSO; the number of viable cells can thus be determined spectrophotometrically. PE cells were seeded at a density of 5,000 cells/well in 50 IL of medium into 96-well microtiter plates. Twelve hours later, the medium was removed, and cells were treated with 100 μL of fresh medium into which the appropriate amount of calcitriol or analog dissolved in dimethyl sulfoxide (DMSO) had been added, with the concentration of DMSO held constant at 0.1 %. […] At 24-hour intervals following the initial treatment of the cells with compounds, 0.1 mg (50 μL of a 2 mg/mL solution) of MTT was added to each well. After 4 hours, the MTT was removed and DMSO added to dissolve the blue formazan dye. Using a microtiter plate reader, the A505 was then determined and cell number calculated from blank-subtracted absorbance values.

[24] = test system: HCC-2998; assay: NCI 60 cell line screen (SRB), Colon Cancer
[25] = test system: SK-MEL-5; assay: NCI 60 cell line screen (SRB), Melanoma
[26] = Table IV (LC50, PG=−50), OVCAR−4

## CC(=O)O[C@H]1C(=O)[C@@]2(C)[C@H]([C@H](OC(=O)c3ccccc3)[C@]3(O)C[C@H](OC(=O)[C@H](O)[C@@H](NC(=O)c4ccccc4)c4ccccc4)C(C)=C1C3(C)C)[C@]1(OC(C)=O)CO[C@@H]1C[C@@H]2O [Paclitaxel, paclitaxel, reference compound]
[1]
  Log10TGI: >−4.00 log10M
[1]; PG=+50
  Log10GI50: −9.38 log10M
[1]; Table IV (LC50, PG=−50)
  Log10GI50: >−4.00 log10M
[2]
  Log10TGI: −4.92 log10M
[2]; PG=+50
  Log10GI50: <−13.00 log10M
[2]; Table IV (LC50, PG=−50)
  Log10GI50: >−4.00 log10M
[3]; OVCAR-4, PG=+50
  Log10GI50: −5.00 log10M
[3]; OVCAR−4, PG=0
  Log10TGI: −4.19 log10M
[3]; [26]
  Log10GI50: >−4.00 log10M
[4]
  Log10TGI: >−4.00 log10M
[5]
  Log10TGI: −4.92 log10M
[5]; PG=+50
  Log10GI50: −9.38 log10M
[5]; Table IV (LC50, PG=−50)
  Log10GI50: >−4.00 log10M
[6]; PG=+50
  Log10GI50: −9.81 log10M
[7]
  Log10TGI: −4.71 log10M
[7]; PG=+50
  Log10GI50: −10.46 log10M
[7]; Table IV (LC50, PG=−50)
  Log10GI50: −4.19 log10M
[8]
  Log10GI50: −10.12 log10M
[9]
  Log10TGI: <-13.00 log10M
[9]; PG=+50
  Log10GI50: <−13.00 log10M
[9]; Table IV (LC50, PG=−50)
  Log10GI50: >−4.00 log10M
[10]
  Log10TGI: >−4.00 log10M
[11]
  Log10TGI: −4.84 log10M
[12]
  Log10TGI: −4.46 log10M
[13]; PG=+50
  Log10GI50: −11.07 log10M
[13]; Table IV (LC50, PG=−50)
  Log10GI50: >−4.41 log10M
[14]; Table IV (LC50, PG=−50)
  Log10GI50: >−4.00 log10M
[15]
  Log10TGI: −10.83 log10M
[15]; PG=+50
  Log10GI50: −10.83 log10M
[15]; Table IV (LC50, PG=−50)
  Log10GI50: >−4.00 log10M
[16]
  Log10TGI: −4.65 log10M
[16]; PG=+50
  Log10GI50: −11.80 log10M
[16]; Table IV (LC50, PG=−50)
  Log10GI50: −4.15 log10M
[17]
  Log10TGI: −4.52 log10M
[18]; MDA-MB−435, PG=+50
  Log10GI50: <-13.00 log10M
[19]
  Log10TGI: −11.57 log10M
[19]; PG=+50
  Log10GI50: −11.57 log10M
[19]; Table IV (LC50, PG=−50)
  Log10GI50: >−4.53 log10M

## CC1=C(C=Cc2cccc(C=CC3=C(C)C4CCC(C)C5CCC6(C)OOC45C(O3)O6)c2)OC2OC3(C)CCC4C(C)CCC1C24OO3 (centres unmarked) [VII-f]
[20]; PG=0
  Log10TGI: >−4.00 log10M
[20]; PG=+50
  Log10GI50: −5.25 log10M
[1]
  Log10TGI: >−4.00 log10M
[1]; PG=+50
  Log10GI50: −5.16 log10M
[1]; Table IV (LC50, PG=−50)
  Log10GI50: >−4.00 log10M
[2]
  Log10TGI: >−4.00 log10M
[2]; PG=+50
  Log10GI50: −6.07 log10M
[2]; Table IV (LC50, PG=−50)
  Log10GI50: >−4.00 log10M
[3]; OVCAR-4, PG=+50
  Log10GI50: −5.93 log10M
[3]; [26]
  Log10GI50: >−4.00 log10M
[4]
  Log10TGI: >−4.33 log10M
[4]; PG=+50
  Log10GI50 or Log10LC50 (see condition): −5.85 log10M
[4]; Table IV (LC50, PG=−50)
  Log10GI50 or Log10LC50 (see condition): >−4.33 log10M
[5]
  Log10TGI: >−4.00 log10M
[5]; PG=+50
  Log10GI50: −6.04 log10M
[5]; Table IV (LC50, PG=−50)
  Log10GI50: >−4.00 log10M
[6]; PG=+50
  Log10GI50: −6.50 log10M
[6]; Table IV (LC50, PG=−50)
  Log10GI50: >−4.00 log10M
[21]; PG=+50
  Log10GI50: −6.13 log10M
[21]; Table IV (LC50, PG=−50)
  Log10GI50: >−4.00 log10M
[22]; PG=0
  Log10TGI: −4.36 log10M
[22]; PG=+50
  log10 GI50 or LC50 (see conditions): −5.32 log10M
[22]; Table IV (LC50, PG=−50)
  log10 GI50 or LC50 (see conditions): >−4.00 log10M
[7]
  Log10TGI: >−4.00 log10M
[7]; PG=+50
  Log10GI50: −4.90 log10M
[7]; Table IV (LC50, PG=−50)
  Log10GI50: >−4.00 log10M
[8]; PG=0
  Log10TGI: −4.39 log10M
[8]
  Log10GI50: −6.05 log10M
[9]
  Log10TGI: −6.21 log10M
[9]; PG=+50
  Log10GI50: −6.21 log10M
[9]; Table IV (LC50, PG=−50)
  Log10GI50: >−4.00 log10M
[23]
  antiproliferative activity in words: at least as antiproliferative as calcitriol
[10]
  Log10TGI: >−4.00 log10M
[10]; PG=+50
  Log10 GI50 (PG=+50) or LC50 (PG=−50): −6.30 log10M
[10]; Table IV (LC50, PG=−50)
  Log10 GI50 (PG=+50) or LC50 (PG=−50): >−4.00 log10M
[11]
  Log10TGI: −4.70 log10M
[11]; PG=+50
  Log10 GI50 or LC50 (per conditions): −5.67 log10M
[11]; Table IV (LC50, PG=−50)
  Log10 GI50 or LC50 (per conditions): >−4.00 log10M
[12]
  Log10TGI: >−4.00 log10M
[12]; PG=+50
  Log10 GI50 or Log10 LC50: −6.03 log10M
[13]; PG=0
  Log10TGI: −5.93 log10M
[13]; PG=+50
  Log10GI50: −6.61 log10M
[13]; Table IV (LC50, PG=−50)
  Log10GI50: −5.30 log10M
[24]; PG=0
  Log10TGI: >−4.00 log10M
[24]; PG=+50
  Log10GI50: −5.59 log10M
[14]; PG=0
  Log10TGI: −6.19 log10M
[14]; PG=+50
  Log10GI50: −6.19 log10M
[14]; Table IV (LC50, PG=−50)
  Log10GI50: >−4.00 log10M
[15]
  Log10TGI: −6.18 log10M
[15]; PG=+50
  Log10GI50: −6.18 log10M
[15]; Table IV (LC50, PG=−50)
  Log10GI50: >−4.00 log10M
[16]
  Log10TGI: >−4.00 log10M
[16]; PG=+50
  Log10GI50: −5.79 log10M
[16]; Table IV (LC50, PG=−50)
  Log10GI50: >−4.00 log10M
[17]
  Log10TGI: >−4.00 log10M
[17]; PG=+50
  Log10 GI50 (PG=+50) or Log10 LC50 (PG=−50): −6.02 log10M
[17]; Table IV (LC50, PG=−50)
  Log10 GI50 (PG=+50) or Log10 LC50 (PG=−50): >−4.00 log10M
[18]; MDA-MB-435, PG=0
  Log10TGI: >−4.00 log10M
[18]; MDA-MB−435, PG=+50
  Log10GI50: −5.86 log10M
[18]; Table IV (LC50, PG=−50), MDA-MB-435
  Log10GI50: >−4.00 log10M
[25]; PG=0
  Log10TGI: −4.93 log10M
[25]; PG=+50
  Log10 GI50 or LC50: −5.80 log10M
[25]; Table IV (LC50, PG=−50)
  Log10 GI50 or LC50: >−4.00 log10M
[19]
  Log10TGI: −6.71 log10M
[19]; PG=+50
  Log10GI50: −6.71 log10M
[19]; Table IV (LC50, PG=−50)
  Log10GI50: >−4.00 log10M
